Results on 31 compounds are retold here after patent US5344843A, “Cat-1 inhibitors, pharmaceutical compositions and methods of use” (Hoffman-La Roche Inc., priority 1992, dated 1994).

Structures are written as SMILES. Where a name gives a salt, the structure may show the parent alone.

The target of assay [1] is T1, CAT-1 (carnitine acyltransferase 1) (Rattus norvegicus, UniProt Q63704).
T1 construct: This preparation is used as the isolated mitochondrial preparation; from tissue; host or cells: rat heart (atria removed), isolated mitochondria
T1 sequence (Q63704 1-772): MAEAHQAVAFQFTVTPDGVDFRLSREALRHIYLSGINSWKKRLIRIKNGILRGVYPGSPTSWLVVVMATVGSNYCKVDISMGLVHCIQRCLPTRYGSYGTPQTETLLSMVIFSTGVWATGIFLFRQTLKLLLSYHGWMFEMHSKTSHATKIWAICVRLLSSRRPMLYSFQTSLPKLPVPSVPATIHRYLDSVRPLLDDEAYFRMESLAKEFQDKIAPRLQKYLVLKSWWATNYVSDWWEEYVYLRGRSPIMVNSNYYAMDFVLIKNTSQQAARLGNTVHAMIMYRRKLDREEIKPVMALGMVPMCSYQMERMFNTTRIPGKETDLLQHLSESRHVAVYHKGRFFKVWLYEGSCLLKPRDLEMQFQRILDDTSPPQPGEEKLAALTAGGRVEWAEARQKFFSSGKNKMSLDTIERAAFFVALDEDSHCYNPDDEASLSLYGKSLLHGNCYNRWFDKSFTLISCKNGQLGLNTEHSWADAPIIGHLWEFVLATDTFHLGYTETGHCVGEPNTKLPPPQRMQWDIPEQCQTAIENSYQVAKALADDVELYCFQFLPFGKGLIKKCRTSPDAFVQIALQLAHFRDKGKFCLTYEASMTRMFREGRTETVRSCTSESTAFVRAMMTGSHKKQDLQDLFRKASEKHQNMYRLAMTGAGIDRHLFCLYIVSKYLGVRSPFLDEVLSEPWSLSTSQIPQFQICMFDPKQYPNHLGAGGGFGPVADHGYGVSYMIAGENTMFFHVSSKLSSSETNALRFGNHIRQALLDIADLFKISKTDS
Put plainly: Primary Screen--Inhibition of CAT-1 in isolated mitochondria. To be noted: rat heart mitochondria, reduction of palmitoyl carnitine formation by 50%; read-out: Primary Screen IC50. It counts as biochemical.
Description: Primary Screen--Inhibitors of CAT-1 in 1Mitochondria
(a). Preparation of Mitochondria
The heart is rapidly removed from an anesthetized rat (sodium pentabarbitol) and placed in ice-cold homogenization buffer (sucrose, 250 mM; Tris, 10 mM; EDTA, 1 mM; BSA, 0.01%; pH=7.4). The atria and extraneous tissue are removed and the remainder is chopped with scissors. The pieces are rinsed in homogenization buffer before being homogenized in 10 mL of the same buffer for 5-7 seconds. The homogenate is then diluted with homogenization buffer (40 total volume) and centrifuged at 200 g for 20 minutes. The supernatant is withdrawn and centrifuged at 7000 g for 20 minutes and the resulting pellet is isolated, resuspended in 40 mL of homogenization buffer and centrifuged once more at 7000 g for 20 minutes. The isolated pellet is resuspended in 10 mL of homogenization buffer and stored at 4° C. until use. This preparation is used as the isolated mitochondrial preparation.
(b). Inhibition of CAT-1 assay
Isolated mitochondria (20 μL) are incubated with 60 μL of Tris/sucrose buffer (sucrose, 500 mM; Tris, 20 mM; KCl, 100 mM; EDTA, 2 mM; pH=7.0 plus 83 μM palmitoyl CoA, and BSA, 0.8 mg/mL and 10^-4 to 10^-10 M of the drug to be tested. After 10 minutes at 30° C., the reaction is started by addition of 10 μL of ^3 H-carnitine (final concentration=250 μM). After 5 minutes, the reaction is terminated by the addition of ice cold 70% perchloric acid (PCA). The precipitated solids so formed, containing the insoluble product of the enzyme palmitoyl carnitine, are captured on filter paper. The filter paper is washed with 7% PCA, then dried and placed in scintillation vials with 10 mL of scintillant (Aquasol, New England Nuclear) and counted for radioactivity. The rate of the reaction is assessed by the difference in radioactivity between zero time and five minutes in the absence of test compound. The ability of test compounds at selected concentrations to inhibit CAT-1 is determined by their ability to reduce the formation of the radioactive product. The IC50 of the test compound is the concentration of test compound that reduces the formation of radioactive product by 50%.

For assay [2], the target named is T1, CAT-1 (carnitine acyltransferase 1). Put plainly: Secondary Screen--Inhibition of CAT-1 in intact cardiac myocytes (hypoxia-induced increase in long-chain acylcarnitines). Type of assay: cell-based. Details: inhibition: dose or concentration left out as unconfirmed. As to conditions: isolated rat cardiac myocytes; for IC50: 50% inhibition of hypoxia-induced increase in long-chain acylcarnitines.
Description: Secondary Screen--Inhibition of CAT-1 in intact Cardiac Myocytes
(a) Preparation of Isolated Rat Cardiac Myocytes
Four hearts are excised from anesthetized rats and perfused retrogradly via the Langendorf technique. Each heart receives 100 mL of Krebs (NaCl, 118.4 mM; KCL, 4.6 mM; NaH2 PO4, 1.0 mM; NaHCO3, 20 mM; MgSO4, 2 mM; CaCl2, 50 μM; glucose, 11.0 mM), 100 mL of Ca++ free Krebs and finally 100 mL of 0.5% collagenase (Boehringer Mannhelm, type 1) in Hepes (NaCl, 115 mM; KCl, 5 mM; sucrose, 35 mM; glucose, 10 mM; Hepes, 10 mM; taurine, 4 mM; MgSO4, 2 mM; CaCl2, 50 μM). After these perfusions, the hearts are chopped into pieces, approx. 0.5 cm×0.5 cm and placed in four 125 mL plastic bottles along with 25 mL of collagenase/Hepes situated in a water bath maintained at 35° C. The pieces of cardiac tissue in each bottle are agitated by using a Harvard respirator connected to four glass syringes, which sucks the tissue up and down each tube during each respiratory cycle. After fifteen minutes, the collagenase/Hepes is removed and replaced with fresh collegenase/Hepes and the process repeated. The collegenase/Hepes from the subsequent fifteen minute harvests are centrifuged at 500 g to pellet the cells which are then resuspended in Hepes buffer. After six harvests, all cells are pelleted, resuspended in 2×26.5 mL of Hepes plus BSA (350 mg) and layered on top of 2×percoll gradients (21.15 mL percoll, 2.35 mL NaCl, 6 drops acetic acid). This is centfifuged at 3000 g for eight minutes forming a percoll gradient which results in viable cells being separated from damaged cells. The viable cells are removed, washed with Hepes and finally resuspended in 25 mL of Hepes.
The isolated cardiac myocytes (2 mL; approximately 1×10^6 cells) are separated into six glass pods. Into four of these are placed selected concentrations of the compound to be tested, and the cells are incubated for twenty minutes, after which the pods are centrifuged at 300 g for three minutes. 300 μL of normoxic Hepes is placed in one of the pods not containing compound and then all pods are placed in a hypoxic chamber (N2 atmosphere). Oxygen is fed via small bore steel tubes to the pod containing the normoxic buffer, while the other five pods receive pre-purified argon (99.998% pure). After two minutes, Hepes (pre-gassed with argon for at least twelve hours) is fed into the five hypoxic pods. This hypoxic environment (pO2 <10 mm Hg) is maintained for twenty minutes, after which the cells and pods are frozen by contact with a metal block precooled in liquid N2. The pods are then removed from the chamber and stored at -70° C. The carnitine assay is performed, as described below in (c), to determine the amount of long-chain acylcarnitine in the cells from the normoxic, hypoxic and hypoxic plus compound samples. […] Thus the IC50 in this screen is the concentration of test compound which produces a 50% inhibition of the hypoxia-induced increase in long-chain acylcarnitines.
(c) Long-chain Acylcarnitine Assay.
The frozen cell samples are thawed, mixed and homogenized with 40 μL of 70% PCA. The homogenate is transferred to eppendorf tubes while the homogenization tube and the glass pod is rinsed with 500 μL of 7% PCA, with the rinse being added to the eppendorf tube. This is then centrifuged at 1000 g for two minutes to pellet the precipitate (containing the long-chain acylcarnitine) and the supernatant is discarded. The pellet is washed twice with 500 μL of 7% PCA, the supernatants being discarded. The pellet is then hydrolyzed (to separate the acyl unit from carnitine to yield free carnitine) by the addition of 200 μL of aleionized H2 O and 50 μL of 5N KOH and incubated at 70° C. for ninety minutes.

By IC50 is commonly meant the concentration that gives 50% inhibition. As for `O=C(O)C(=O)c1ccc(OC/C=C/c2ccc3ccccc3c2)cc1` [Example 96, (E)-4-[[3-(2-naphthalenyl)-2-propenyl]oxy]-alpha-oxobenzeneacetic acid], the IC50 in assay [1] came out at 0.065 µM; in assay [2], 7 µM.
As to `O=C(O)C(=O)c1ccc(C(=O)NCCOc2ccc3ccccc3c2)cc1` [Example 177, 4-[[[2-(2-naphthalenyloxy)ethyl]amino]carbonyl]-alpha-oxobenzeneacetic acid], the IC50 is 0.4 µM in assay [1] and 25 µM in assay [2].
A word on the inhibition: it is the change of the read-out against control, counted positive when it falls. For `O=C(O)C(=O)c1ccc(OCCCn2c(=O)c3ccccc3c3ccccc32)cc1` [Example 262, 4-[3-(5,6-dihydro-6-oxo-5-phenanthridinyl)propoxy]-alpha-oxobenzeneacetic acid], in assay [1], the IC50 worked out at 1 µM. The same compound displayed an inhibition in assay [2] (hypoxia) of 99%.
In the case of `O=C(O)C(=O)c1ccc(CCCOc2ccc3ccccc3c2)cc1` [Example 143, 4-[3-(2-naphthalenyloxy)propyl]-alpha-oxobenzeneacetic acid], the 50% inhibitory concentration (IC50) in assay [1] turned out to be 2.7 µM; in assay [2] it was 12 µM.
`O=C(OCC(O)CO)C(=O)c1ccc(OCCOc2ccc3ccccc3c2)s1` (racemic) [Example 5, rac.-5-[[2-(2-naphthalenyloxy)ethyl]oxy]-alpha-oxo-2-thiopheneacetic acid 2,3-dihydroxypropyl ester]: the half-inhibitory concentration (IC50) was found to be 0.04 µM in assay [1] and 0.25 µM in assay [2].
Turning to `O=C(O)C(=O)c1ccc(OCC(=O)c2cccc3ccccc23)cc1` [Example 284, 4-[2-(1-naphthalenyl)-2-oxoethoxy]-alpha-oxobenzeneacetic acid], the IC50 in assay [1] amounted to 0.03 µM; in assay [2], 0.8 µM.
For `CCC(C)(C)C(=O)OCc1cccc(C)c1/C=C\COc1ccc(C(=O)C(=O)O)cc1` [Example 215, (Z)-4-[3-[2-(2,2-dimethyl-1-oxobutoxy)methyl]-6-methylphenyl]-2-propenyloxy]-alpha-oxobenzeneacetic acid (1:1) morpholine salt], the IC50 in assay [1] came out at 2 µM; in assay [2], 9 µM.
`CCC(C)(C)C(=O)OCc1cccc(C)c1CCCOc1ccc(C(=O)C(=O)O)cc1` [Example 223, 4-[3-[2-[(2,2-dimethyl-1-oxobutoxy)methyl]-6-methylphenyl]propoxy]-alpha-oxobenzeneacetic acid]: the figures for the 50% inhibitory concentration (IC50) in assay [1] and in assay [2] were 1.1 µM and 0.09 µM, respectively.
As for `O=C(O)C(=O)c1ccc(OCCOc2ccc3ccccc3c2)c(F)c1` [Example 199, 3-fluoro-4-[2-(2-naphthalenyloxy)ethoxy]-alpha-oxobenzeneacetic acid], the results for the IC50 in assay [1] and in assay [2] were 0.17 µM and 0.6 µM, respectively.
With `O=C(O)C(=O)c1ccc(OCCCCOc2ccc3ccccc3c2)cc1` [Example 88, 4-[[4-(2-naphthalenyloxy)butyl]oxy]-alpha-oxobenzeneacetic acid], the values for the IC50 in assay [1] and in assay [2] were 0.17 µM and 3.5 µM, respectively.
On to `O=C(O)C(=O)c1ccc(OCCOc2ccc3ccccc3c2)c([N+](=O)[O-])c1` [Example 179, 4-[2-(2-naphthalenyloxy)ethoxy]-3-nitro-alpha-oxobenzeneacetic acid], for which the 50% inhibitory concentration (IC50) in assay [1] is 0.2 µM; in assay [2], 8 µM.
For `CCC(C)(C)C(=O)OCc1cccc(C)c1OCCSc1ccc(C(=O)C(=O)O)cc1` [Example 175, 4-[[2-[2-[(2,2-dimethyl-1-oxobutoxy)methyl]-6-methylphenoxy]ethyl]thio]-alpha-oxobenzeneacetic acid], the half-maximal inhibitory concentration (IC50) in assay [1] turned out to be 0.5 µM; in assay [2], 0.2 µM.
`CCC(C)(C)C(=O)Oc1cccc2ccc(OCCOc3ccc(C(=O)C(=O)O)cc3)cc12` [Example 134, 4-[[2-[8-(2,2-dimethyl-1-oxobutoxy)-2-naphthalenyloxy]ethyl]oxy]-alpha-oxobenzeneacetic acid]: the IC50 worked out at 0.6 µM in assay [1] and 0.4 µM in assay [2].
As for `CO/N=C(\C(=O)O)c1ccc(OCCOc2ccc3ccccc3c2)s1` [Example 307, (E)-alpha-(methoxyimino)-5-[2-(2-naphthalenyloxy)ethoxy]-2-thiopheneaceticacid], the IC50 came to 1.5 µM in assay [1] and 5 µM in assay [2].
As for `O=C(O)C(=O)c1ccc(OCCOC2CCCCC2)cc1` [Example 99, 4-[[2-(cyclohexyloxy)ethyl]oxy]-alpha-oxobenzeneacetic acid], the IC50 stood at 0.9 µM in assay [1] and 20 µM in assay [2].
For the compound `O=C(O)C(=O)c1ccc(OCCCC(=O)c2ccc3ccccc3c2)cc1` [Example 282, 4-[[4-(2-naphthalenyl)-4-oxobutyl]oxy]-alpha-oxobenzeneacetic acid], the half-inhibitory concentration (IC50) amounted to 0.4 µM in assay [1] and 8 µM in assay [2].
For the compound `O=C(O)C(=O)c1ccc(OCCOc2ccc3ccccc3c2)s1` [Example 4, 5-[[2-(2-naphthalenyloxy)ethyl]oxy]-alpha-oxo-2-thiopheneacetic acid], the values for the concentration for half-maximal inhibition (IC50) in assay [1] and in assay [2] were 0.05 µM and 1 µM, respectively.
Consider `O=C(O)/C(=N\O)c1ccc(OCCOc2ccc3ccccc3c2)cc1` [Example 301, (Z)-alpha-(hydroxyimino)-4-[2-(2-naphthalenyloxy)ethoxy]benzeneacetic acid], for which the IC50 in assay [1] was 0.58 µM; in assay [2], 2 µM.
Regarding `O=C(O)C(=O)c1ccc(OCCOC23CC4CC(CC(C4)C2)C3)cc1` [Example 103, alpha-oxo-4-[[2-[tricyclo(3.3.1.1-3,7)dec-1-yloxy]ethyl]oxy]benzeneacetic acid], the IC50 in assay [1] was 1.5 µM; in assay [2] it was 40 µM.
The matching figures for `O=C(O)C(=O)c1ccc(OCCOc2ccccc2)cc1` [Example 37, alpha-oxo-4-[[2-(phenoxy)ethyl]oxy]benzeneacetic acid]: 2 µM and 37 µM.
In the case of `Cc1cc(C(=O)C(=O)O)ccc1OCCOc1ccc2ccccc2c1` [Example 181, 3-methyl-4-[2-(2-naphthalenyloxy)ethoxy]-alpha-oxobenzeneacetic acid], the half-maximal inhibitory concentration (IC50) in assay [1] came out at 0.4 µM; in assay [2] it was 7.5 µM.
The matching figures for `O=C(O)C(=O)c1ccc(OCCCCOc2ccccc2)cc1` [Example 71, alpha-oxo-4-[[(4-phenoxy)butyl]oxy]benzeneacetic acid]: 0.4 µM and 20 µM.
Consider `O=C(O)C(=O)c1ccc(SCCOC2CCCCCCC2)cc1` [Example 173, 4-[[2-(cyclooctyloxy)ethyl]thio]-alpha-oxobenzeneacetic acid], for which the IC50 came to 0.8 µM in assay [1] and 0.3 µM in assay [2].
On to `O=C(O)C(=O)c1c(F)cc(OCCOc2ccc3ccccc3c2)cc1F` [Example 201, 2,6-difluoro-4-[2-(2-naphthalenyloxy)ethoxy]-alpha-oxobenzeneacetic acid], for which the IC50 was 0.83 µM in assay [1] and 7 µM in assay [2].
The matching figures for `O=C(O)C(=O)c1ccc(OCCOC2CCCCCCC2)s1` [Example 9, 5-[[2-(cyclooctyloxy)ethyl]oxy]-alpha-oxo-2-thiopheneacetic acid]: 1.8 µM and 8 µM.
Take `CN(C)CCOC(=O)C(=O)c1ccc(OCCOc2ccc3ccccc3c2)cc1` [Example 106, 4-[[2-(2-naphthalenyloxy)ethyl]oxy]-alpha-oxobenzeneacetic acid 2-(dimethylamino)ethyl ester]: the results for the IC50 in assay [1] and in assay [2] were 0.09 µM and 1 µM, respectively.
Regarding `CC(C)c1cccc(-c2ccc(F)cc2)c1/C=C/COc1ccc(C(=O)C(=O)O)cc1` [Example 229, (E)-4-[3-[4'-fluoro-3-(1-methylethyl)[1,1'-biphenyl]-2-yl]-2-propenyloxy]-alpha-oxobenzeneacetic acid], the IC50 in assay [1] was determined as 9 µM; in assay [2], 1 µM.
As to `CCCc1c(OCCCOc2ccc(C(=O)C(=O)O)cc2)ccc(C(C)=O)c1O` [Example 257, 4-[3-(4-acetyl-3-hydroxy-2-propylphenoxy)propoxy]-alpha-oxobenzeneacetic acid], the IC50 in assay [1] stood at 0.38 µM; in assay [2] it was 0.1 µM.
As to `O=C(O)C(=O)c1ccc(OCCCc2ccccc2)cc1` [Example 23, 4-[(3-phenylpropyl)oxy]-alpha-oxobenzeneacetic acid], the IC50 in assay [1] was determined as 0.5 µM; in assay [2], 37 µM.
Turning to `O=C(O)C(=O)c1ccc(OCCOc2ccc3ccccc3c2)cc1F` [Example 197, 2-fluoro-4-[2-(2-naphthalenyloxy)ethoxy]-alpha-oxobenzeneacetic acid], the IC50 in assay [1] is 0.16 µM; in assay [2], 6 µM.
The matching figures for `O=C(O)C(=O)c1ccc(OCCSc2ccc3ccccc3c2)cc1` [Example 90, 4-[[2-(2-naphthalenylthio)ethyl]oxy]-alpha-oxobenzeneacetic acid]: 0.27 µM and 28 µM.
